The source made the active and inactive calls. The rule behind the calls is not given here.
Columns and labels:
[1] = target: Insulin-like growth factor 1 receptor (Homo sapiens) (UniProt P08069); assay: Inhibition of IGF1R (unknown origin) assessed as residual enzyme activity at 1 uM relative to untreated control
[2] = target: AMP-activated protein kinase, AMPK (Homo sapiens) (UniProt P54646+O43741+P54619+Q9UGJ0+Q9Y478+Q13131+Q9UGI9); assay: Inhibition of AMPK (unknown origin) assessed as residual enzyme activity at 1 uM relative to untreated control; type: protein-complex assay
[3] = target: Mitogen-activated protein kinase 8 (Homo sapiens) (UniProt P45983); assay: Inhibition of JNK1 (unknown origin) assessed as residual enzyme activity at 1 uM relative to untreated control
Chain of Mitogen-activated protein kinase 8 (Homo sapiens) (P45983 whole entry): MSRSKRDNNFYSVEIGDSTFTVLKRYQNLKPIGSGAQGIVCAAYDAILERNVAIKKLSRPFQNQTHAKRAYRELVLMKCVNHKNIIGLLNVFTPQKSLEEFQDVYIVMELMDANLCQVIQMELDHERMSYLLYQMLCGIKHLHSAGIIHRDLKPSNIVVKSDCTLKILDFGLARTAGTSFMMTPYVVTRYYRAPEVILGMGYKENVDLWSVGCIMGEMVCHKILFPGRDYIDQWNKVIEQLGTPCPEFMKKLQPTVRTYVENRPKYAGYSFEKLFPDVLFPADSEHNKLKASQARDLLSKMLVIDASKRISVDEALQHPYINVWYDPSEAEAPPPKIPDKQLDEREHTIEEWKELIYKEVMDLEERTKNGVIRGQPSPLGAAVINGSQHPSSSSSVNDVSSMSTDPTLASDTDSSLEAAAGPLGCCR

[4] = target: Tyrosine-protein kinase Lck (Homo sapiens) (UniProt P06239); assay: Inhibition of LCK (unknown origin) assessed as residual enzyme activity at 1 uM relative to untreated control
Chain of Tyrosine-protein kinase Lck (Homo sapiens) (P06239 2-509 limits assumed): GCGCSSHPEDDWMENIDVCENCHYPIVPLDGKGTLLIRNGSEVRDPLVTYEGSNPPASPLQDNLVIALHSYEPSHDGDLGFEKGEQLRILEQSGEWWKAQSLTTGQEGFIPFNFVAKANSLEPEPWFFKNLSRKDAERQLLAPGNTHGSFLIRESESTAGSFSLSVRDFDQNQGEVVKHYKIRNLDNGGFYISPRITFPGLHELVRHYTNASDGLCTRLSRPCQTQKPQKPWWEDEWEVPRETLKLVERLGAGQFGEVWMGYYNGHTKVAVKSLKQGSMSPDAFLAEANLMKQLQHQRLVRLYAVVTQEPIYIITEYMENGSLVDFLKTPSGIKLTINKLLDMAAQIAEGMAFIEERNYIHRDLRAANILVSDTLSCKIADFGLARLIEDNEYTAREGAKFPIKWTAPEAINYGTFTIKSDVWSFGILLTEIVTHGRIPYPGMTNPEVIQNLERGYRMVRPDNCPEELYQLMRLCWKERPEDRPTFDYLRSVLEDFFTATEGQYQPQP

[5] = target: T1, TGF-beta receptor type-1 (Homo sapiens) (UniProt P36897); assay: Inhibition of ALK5 in serum starved human HeLa cells assessed as reduction in TGF-beta-induced SMAD2/3 nuclear transaction at 10 uM pre-incubated for 30 mins before TGF-beta stimulation for 30 mins by immunofluorescence analysis; type: cell-based
T1 sequence (whole entry): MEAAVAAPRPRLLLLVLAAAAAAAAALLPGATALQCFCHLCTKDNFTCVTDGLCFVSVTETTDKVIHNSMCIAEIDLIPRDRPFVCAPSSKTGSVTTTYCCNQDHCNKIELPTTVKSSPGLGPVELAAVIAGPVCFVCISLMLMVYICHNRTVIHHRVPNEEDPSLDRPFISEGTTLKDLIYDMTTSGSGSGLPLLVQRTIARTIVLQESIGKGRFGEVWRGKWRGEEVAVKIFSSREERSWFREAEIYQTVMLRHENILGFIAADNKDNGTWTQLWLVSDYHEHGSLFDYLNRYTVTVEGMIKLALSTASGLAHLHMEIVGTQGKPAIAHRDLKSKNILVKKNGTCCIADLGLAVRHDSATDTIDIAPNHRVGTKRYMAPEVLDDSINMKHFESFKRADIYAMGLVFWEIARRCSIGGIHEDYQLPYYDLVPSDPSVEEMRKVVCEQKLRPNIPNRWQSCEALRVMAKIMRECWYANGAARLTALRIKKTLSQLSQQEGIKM

[6] = target: Mitogen-activated protein kinase kinase kinase 11 (Homo sapiens) (UniProt Q16584); assay: Inhibition of MLK3 (unknown origin) assessed as residual enzyme activity at 1 uM relative to untreated control
[7] = target: Ribosomal protein S6 kinase beta-1 (Homo sapiens) (UniProt P23443); assay: Inhibition of S6K1 (unknown origin) assessed as residual enzyme activity at 1 uM relative to untreated control
MCF7 = assay: Cytotoxicity against human MCF7 cells assessed as decrease in cell proliferation after 72 hrs by calcein AM staining-based assay; type: functional; settings: MCF7, 72 h
[8] = target: T1, TGF-beta receptor type-1 (Homo sapiens); assay: Inhibition of human ALK5 expressed in Sf9 insect cells assessed as residual enzyme activity at 1 uM using casein as substrate in presence of [gamma-33P]ATP relative to untreated control
[9] = target: Casein kinase I isoform delta (Homo sapiens) (UniProt P48730); assay: Inhibition of CK1delta (unknown origin) assessed as residual enzyme activity at 1 uM relative to untreated control
Chain of Casein kinase I isoform delta (Homo sapiens) (P48730 whole entry, looked up, canonical isoform): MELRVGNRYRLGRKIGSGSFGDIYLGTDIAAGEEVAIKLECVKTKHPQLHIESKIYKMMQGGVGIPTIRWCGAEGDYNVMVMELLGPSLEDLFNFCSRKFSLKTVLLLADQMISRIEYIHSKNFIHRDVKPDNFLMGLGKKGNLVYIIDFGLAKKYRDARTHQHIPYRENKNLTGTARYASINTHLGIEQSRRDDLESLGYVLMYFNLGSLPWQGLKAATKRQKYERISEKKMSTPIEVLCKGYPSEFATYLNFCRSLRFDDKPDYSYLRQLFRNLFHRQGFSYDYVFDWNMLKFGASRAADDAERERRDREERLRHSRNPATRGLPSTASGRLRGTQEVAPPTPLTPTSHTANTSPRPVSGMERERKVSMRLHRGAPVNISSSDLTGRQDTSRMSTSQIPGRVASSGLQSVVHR

[10] = target: Interleukin-1 receptor-associated kinase 4 (Homo sapiens) (UniProt Q9NWZ3); assay: Inhibition of IRAK4 (unknown origin) assessed as residual enzyme activity at 1 uM relative to untreated control
Chain of Interleukin-1 receptor-associated kinase 4 (Homo sapiens) (Q9NWZ3 whole entry): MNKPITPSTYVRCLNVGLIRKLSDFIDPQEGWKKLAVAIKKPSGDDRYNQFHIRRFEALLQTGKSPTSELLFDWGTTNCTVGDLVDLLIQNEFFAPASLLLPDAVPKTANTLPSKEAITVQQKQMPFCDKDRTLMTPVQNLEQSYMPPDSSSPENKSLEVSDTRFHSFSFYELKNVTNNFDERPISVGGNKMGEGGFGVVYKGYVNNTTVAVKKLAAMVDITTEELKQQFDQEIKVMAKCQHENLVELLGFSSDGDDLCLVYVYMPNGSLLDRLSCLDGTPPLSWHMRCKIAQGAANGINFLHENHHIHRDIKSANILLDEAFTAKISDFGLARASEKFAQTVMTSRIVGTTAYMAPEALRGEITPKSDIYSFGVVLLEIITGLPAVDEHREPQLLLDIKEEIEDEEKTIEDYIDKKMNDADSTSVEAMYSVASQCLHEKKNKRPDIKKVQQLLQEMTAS

[11] = target: Mitogen-activated protein kinase 14 (Homo sapiens) (UniProt Q16539); assay: Inhibition of p38alpha (unknown origin) assessed as residual enzyme activity at 1 uM relative to untreated control
Chain of Mitogen-activated protein kinase 14 (Homo sapiens) (Q16539 whole entry): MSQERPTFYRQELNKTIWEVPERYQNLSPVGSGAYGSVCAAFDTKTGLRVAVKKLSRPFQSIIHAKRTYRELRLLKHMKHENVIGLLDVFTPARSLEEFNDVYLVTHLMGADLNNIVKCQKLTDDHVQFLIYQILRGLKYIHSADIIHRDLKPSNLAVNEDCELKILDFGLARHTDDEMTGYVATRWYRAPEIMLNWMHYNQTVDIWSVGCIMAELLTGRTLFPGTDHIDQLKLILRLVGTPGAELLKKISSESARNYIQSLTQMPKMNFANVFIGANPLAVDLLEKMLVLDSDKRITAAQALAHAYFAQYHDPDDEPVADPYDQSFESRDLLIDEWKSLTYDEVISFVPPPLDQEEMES

[12] = target: Serine/threonine-protein kinase N2 (Homo sapiens) (UniProt Q16513); assay: Inhibition of PRK2 (unknown origin) assessed as residual enzyme activity at 1 uM relative to untreated control
[13] = target: RAC-alpha serine/threonine-protein kinase (Homo sapiens) (UniProt P31749); assay: Inhibition of PKBalpha (unknown origin) assessed as residual enzyme activity at 1 uM relative to untreated control
Chain of RAC-alpha serine/threonine-protein kinase (Homo sapiens) (P31749 whole entry): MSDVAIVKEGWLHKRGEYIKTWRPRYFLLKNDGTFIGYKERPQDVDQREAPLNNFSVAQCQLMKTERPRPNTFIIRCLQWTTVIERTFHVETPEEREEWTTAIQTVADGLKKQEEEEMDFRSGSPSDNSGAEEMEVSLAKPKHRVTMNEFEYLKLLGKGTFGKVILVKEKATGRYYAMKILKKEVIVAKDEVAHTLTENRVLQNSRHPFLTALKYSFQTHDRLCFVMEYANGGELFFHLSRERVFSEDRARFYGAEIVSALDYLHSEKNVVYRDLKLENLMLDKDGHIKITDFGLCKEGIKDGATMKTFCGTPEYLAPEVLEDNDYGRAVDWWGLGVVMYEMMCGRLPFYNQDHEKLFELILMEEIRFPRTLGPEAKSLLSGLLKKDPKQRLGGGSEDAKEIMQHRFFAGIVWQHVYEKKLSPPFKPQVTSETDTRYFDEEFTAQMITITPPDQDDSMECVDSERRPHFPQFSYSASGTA

[14] = target: Serine/threonine-protein kinase D1 (Homo sapiens) (UniProt Q15139); assay: Inhibition of PKD1 (unknown origin) assessed as residual enzyme activity at 1 uM relative to untreated control
[15] = target: T1, TGF-beta receptor type-1 (Homo sapiens); settings: HeLa, at 1 µM
Description: Inhibition of ALK5 in serum starved human HeLa cells assessed as reduction in TGF-beta-induced SMAD2/3 nuclear transaction at 1 uM pre-incubated for 30 mins before TGF-beta stimulation for 30 mins by immunofluorescence analysis

[16] = target: Calcium/calmodulin-dependent protein kinase type 1 (Homo sapiens) (UniProt Q14012); assay: Inhibition of CAMK1 (unknown origin) assessed as residual enzyme activity at 1 uM relative to untreated control
[17] = target: Dual specificity protein kinase TTK (Homo sapiens) (UniProt P33981); assay: Inhibition of TTK (unknown origin) assessed as residual enzyme activity at 1 uM relative to untreated control
[18] = target: Serine/threonine-protein kinase PLK1 (Homo sapiens) (UniProt P53350); assay: Inhibition of PLK1 (unknown origin) assessed as residual enzyme activity at 1 uM relative to untreated control
[19] = target: Homeodomain-interacting protein kinase 2 (Homo sapiens) (UniProt Q9H2X6); assay: Inhibition of HIPK2 (unknown origin) assessed as residual enzyme activity at 1 uM relative to untreated control
Chain of Homeodomain-interacting protein kinase 2 (Homo sapiens) (Q9H2X6 whole entry, looked up): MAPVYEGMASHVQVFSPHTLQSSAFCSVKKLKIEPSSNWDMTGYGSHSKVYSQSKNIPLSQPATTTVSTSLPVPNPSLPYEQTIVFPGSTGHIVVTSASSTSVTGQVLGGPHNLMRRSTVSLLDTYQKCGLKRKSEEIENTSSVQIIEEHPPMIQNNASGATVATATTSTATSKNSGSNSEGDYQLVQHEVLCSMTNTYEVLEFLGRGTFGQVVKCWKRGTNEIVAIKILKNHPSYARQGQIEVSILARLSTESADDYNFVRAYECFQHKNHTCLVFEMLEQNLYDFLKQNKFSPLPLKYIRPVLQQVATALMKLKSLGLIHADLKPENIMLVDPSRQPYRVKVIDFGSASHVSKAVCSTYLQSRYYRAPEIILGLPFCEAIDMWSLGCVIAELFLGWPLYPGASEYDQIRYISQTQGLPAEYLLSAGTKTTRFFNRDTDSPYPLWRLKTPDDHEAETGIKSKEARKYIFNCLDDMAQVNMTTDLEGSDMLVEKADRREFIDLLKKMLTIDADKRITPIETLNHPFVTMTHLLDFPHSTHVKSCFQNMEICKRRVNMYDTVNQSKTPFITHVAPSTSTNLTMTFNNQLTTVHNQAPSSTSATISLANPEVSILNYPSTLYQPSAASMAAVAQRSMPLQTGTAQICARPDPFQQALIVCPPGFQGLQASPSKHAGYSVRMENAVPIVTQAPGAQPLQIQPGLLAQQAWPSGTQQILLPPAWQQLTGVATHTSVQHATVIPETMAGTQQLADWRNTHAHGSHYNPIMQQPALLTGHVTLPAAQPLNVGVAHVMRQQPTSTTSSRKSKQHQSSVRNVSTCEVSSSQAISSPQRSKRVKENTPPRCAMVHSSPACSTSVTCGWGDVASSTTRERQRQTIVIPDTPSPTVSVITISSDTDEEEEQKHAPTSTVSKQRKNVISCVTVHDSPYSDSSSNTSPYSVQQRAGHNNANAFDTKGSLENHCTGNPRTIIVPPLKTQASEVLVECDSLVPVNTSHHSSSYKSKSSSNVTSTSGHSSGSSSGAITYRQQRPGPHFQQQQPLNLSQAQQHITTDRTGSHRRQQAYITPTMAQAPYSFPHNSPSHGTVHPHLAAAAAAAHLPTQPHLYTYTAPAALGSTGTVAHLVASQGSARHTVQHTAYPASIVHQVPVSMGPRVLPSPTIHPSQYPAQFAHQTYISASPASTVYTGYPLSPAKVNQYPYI

[20] = target: Dual specificity tyrosine-phosphorylation-regulated kinase 1A (Homo sapiens) (UniProt Q13627); assay: Inhibition of DYRK1A (unknown origin) assessed as residual enzyme activity at 1 uM relative to untreated control
[21] = target: Tyrosine-protein kinase ABL1 (Mus musculus, UniProt P00520); assay: biochemical; type: cell-based, Sf9
[22] = target: Serine/threonine-protein kinase 3 (Homo sapiens) (UniProt Q13188); assay: Inhibition of MST2 (unknown origin) assessed as residual enzyme activity at 1 uM relative to untreated control
Chain of Serine/threonine-protein kinase 3 (Homo sapiens) (Q13188 whole entry): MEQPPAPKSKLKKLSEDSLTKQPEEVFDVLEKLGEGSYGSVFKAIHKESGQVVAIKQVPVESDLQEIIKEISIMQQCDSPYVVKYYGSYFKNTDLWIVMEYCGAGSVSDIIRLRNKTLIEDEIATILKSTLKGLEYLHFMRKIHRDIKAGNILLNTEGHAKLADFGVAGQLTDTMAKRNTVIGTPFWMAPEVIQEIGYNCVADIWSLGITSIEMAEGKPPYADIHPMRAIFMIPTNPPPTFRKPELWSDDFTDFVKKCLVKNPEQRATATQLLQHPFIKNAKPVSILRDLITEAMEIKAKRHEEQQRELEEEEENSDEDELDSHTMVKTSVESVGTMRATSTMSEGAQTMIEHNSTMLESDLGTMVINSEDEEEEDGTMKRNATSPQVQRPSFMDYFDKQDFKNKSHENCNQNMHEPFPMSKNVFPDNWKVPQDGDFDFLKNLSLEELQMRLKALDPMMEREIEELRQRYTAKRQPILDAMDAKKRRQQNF

[23] = target: Protein kinase C alpha type (Homo sapiens) (UniProt P17252); assay: Inhibition of PKCalpha (unknown origin) assessed as residual enzyme activity at 1 uM relative to untreated control
[24] = target: Tyrosine-protein kinase BTK (Homo sapiens) (UniProt Q06187); assay: Inhibition of BTK (unknown origin) assessed as residual enzyme activity at 1 uM relative to untreated control
[25] = target: Proto-oncogene tyrosine-protein kinase Src (Homo sapiens) (UniProt P12931); assay: Inhibition of SRC (unknown origin) assessed as residual enzyme activity at 1 uM relative to untreated control
[26] = target: Rho-associated protein kinase 2 (Homo sapiens) (UniProt O75116); assay: Inhibition of ROCK2 (unknown origin) assessed as residual enzyme activity at 1 uM relative to untreated control
[27] = target: High affinity nerve growth factor receptor (Homo sapiens) (UniProt P04629); assay: Inhibition of TRKA (unknown origin) assessed as residual enzyme activity at 1 uM relative to untreated control
[28] = target: 3-phosphoinositide-dependent protein kinase 1 (Homo sapiens) (UniProt O15530); assay: Inhibition of PDK1 (unknown origin) assessed as residual enzyme activity at 1 uM relative to untreated control

Activity [1]: > 80%
Activity [2]: > 80%
Activity [3]: > 80%
Activity [4]: > 80%
inhibition [5]: 100%
Activity [6]: 34%
Activity [7]: > 80%
Activity [8]: 6%
Activity [9]: 34%
Activity [10]: > 80%
Activity [11]: 9%
Activity [12]: > 80%
Activity [13]: > 80%
Activity [14]: 12%
inhibition [15]: Active
Activity [16]: > 80%
Activity [17]: > 80%
Activity [18]: > 80%
Activity [19]: > 80%
Activity [20]: > 80%
IC50 [21]: 66 µM
Activity [22]: > 80%
Activity [23]: > 80%
Activity [24]: > 80%
Activity [25]: > 80%
Activity [26]: > 80%
Activity [27]: > 80%
Activity [28]: > 80%
SMILES: Cc1cccc(-c2nn3c(c2-c2ccc(O)cc2)C(C)C(C)(C)C3)n1 (centres undefined)
IC50 (MCF7): > 100 µM
